Measurements published in patent US9656990B2, “Cathepsin cysteine protease inhibitors” (Merck Sharp & Dohme Corp., priority 2014, dated 2017).

Key:
human cathepsin K = human cathepsin K (UniProt P43236, Y175D/V274L, species not given); assay: Cathepsin K Assay; format: biochemical; conditions: IP from dose response curve; Z-Leu-Arg-AMC substrate, pH 5.5; read-out: hrbCat K (IP (nM))
human cathepsin F = target: T1, human cathepsin F (Homo sapiens, UniProt Q9UBX1); assay: Cathepsin F Assay; format: biochemical; conditions: IP from dose response curve; Z-Phe-Arg-AMC substrate, pH 5.5; read-out: hCat F (IP (nM))
T1 sequence (Q9UBX1 271-484): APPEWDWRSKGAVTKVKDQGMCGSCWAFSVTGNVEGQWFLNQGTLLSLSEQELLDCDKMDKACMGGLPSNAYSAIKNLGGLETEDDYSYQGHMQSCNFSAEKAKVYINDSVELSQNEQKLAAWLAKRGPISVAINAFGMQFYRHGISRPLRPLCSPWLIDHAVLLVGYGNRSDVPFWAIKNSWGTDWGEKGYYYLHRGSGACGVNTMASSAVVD
Outline: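 Human cathepsin F (10 nM) preincubated 15 min at room temperature with compounds in 50 mM MES pH 5.5, 2.5 mM EDTA, 2.5 mM DTT, 10% DMSO. Z-Phe-Arg-AMC (8 μM) added; AMC release read by fluorescence (Ex 360/Em 460 nm) over 20 min, inhibition fit to dose-response model.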

SMILES | IC50 (human cathepsin K) [nM] | IC50 (human cathepsin F) [nM]
N#CC1(NC(=O)[C@@H]2CC(F)(F)CC[C@H]2c2nn3ccccc3c2-c2ccc(N3CCS(=O)(=O)CC3)cc2)CC1 [Example 28, (1R,2R)-N-(1-cyanocyclopropyl)-2-(3-(4-(1,1-dioxidothiomorpholino)phen-yl)pyrazolo[1,5-a]pyridin-2-yl)-5,5-difluorocyclohexanecarbox-amide] | 1.94 | 363
N#CC1(NC(=O)[C@@H]2CCCC[C@H]2c2nn(-c3cc(F)ccc3F)cc2-c2ccc(N3CCS(=O)(=O)CC3)cc2)CC1 [Example 114, (1R,2R)-N-(1-cyanocyclopropyl)-2-(1-(2,5-difluorophenyl)-4-(4-(1,1-dioxidothiomorpholino)phen-yl)-1H-pyrazol-3-yl)cyclohexanecarboxamide] | 1.06 | 633
Cc1c(-c2ccc(N3CCS(=N)(=O)CC3)cc2)c([C@@H]2CCCC[C@H]2C(=O)NC2(C#N)CC2)nn1-c1ncccc1F [Example 50, (1R,2R)-N-(1-cyanocyclopropyl)-2-(1-(3-fluoropyridin-2-yl)-4-(4-(1-imino-1-oxidothiomorpholino)phenyl)-5-methyl-1H-pyrazol-3-yl)cyclohexanecarboxamide] | 14 | 7790
N#CC1(NC(=O)[C@@H]2CCCC[C@H]2c2nn(-c3ccc(-n4cccn4)cc3)cc2-c2ccc(N3CCS(=O)(=O)CC3)cc2)CC1 [Example 123, (1R,2R)-2-(1-(4-(1H-pyrazol-1-yl)phenyl)-4-(4-(1,1-dioxidothiomorpholino)phen-yl)-1H-pyrazol-3-yl)-N-(1-cyanocyclopropyl)cyclohex-anecarboxamide] | 0.96 | 593
N#CC1(NC(=O)[C@@H]2CCCC[C@H]2c2nn(-c3ncc(F)cc3F)cc2-c2ccc(N3CCS(=O)(=O)CC3)cc2)CC1 [Example 148, (1R,2R)-N-(1-cyanocyclopropyl)-2-(1-(3,5-difluoropyridin-2-yl)-4-(4-(1,1-dioxidothiomorpholino)phen-yl)-1H-pyrazol-3-yl)cyclohexanecarboxamide] | 1.01 | 502
C[C@@H](C#N)NC(=O)[C@@H]1CCC(F)(F)C[C@H]1c1nn(-c2ncccc2F)cc1-c1ccc(N2CCS(=N)(=O)CC2)cc1 [Example 45, (1R,2R)-N-((S)-1-cyanoethyl)-4,4-difluoro-2-(1-(3-fluoropyridin-2-yl)-4-(4-(1-imino-1-oxidothiomorpholino)phenyl)-1H-pyrazol-3-yl)cyclohexanecarboxamide] | 6.61 | 5480
CN=S1(=O)CCN(c2ccc(-c3cn(-c4ccc(F)cn4)nc3[C@@H]3CC[C@H](F)C[C@H]3C(=O)NC3(C#N)CC3)cc2)CC1 [Example 17, (1R,2R,5S)-N-(1-cyanocyclopropyl)-5-fluoro-2-(1-(5-fluoropyridin-2-yl)-4-(4-(1-(methylimino)-1-oxidothiomorpholino)phenyl)-1H-pyrazol-3-yl)cyclohexanecarboxamide] | 3.22 | 1410
N#CC1(NC(=O)[C@@H]2CCCC[C@H]2c2nn(-c3c(F)cccc3F)cc2-c2ccc(N3CCS(=O)(=O)CC3)cc2)CC1 [Example 133, (1R,2R)-N-(1-cyanocyclopropyl)-2-(1-(2,6-difluorophenyl)-4-(4-(1,1-dioxidothiomorpholino)phen-yl)-1H-pyrazol-3-yl)cyclohexanecarboxamide] | 3.56 | 2340
N#CCNC(=O)[C@@H]1CC(F)(F)CC[C@H]1c1nn(-c2ccc(F)cc2)cc1-c1ccc(N2CCS(=O)(=O)CC2)cc1 [Example 81, (1R,2R)-N-(cyanomethyl)-2-(4-(4-(1,1-dioxidothiomorpholino)phen-yl)-1-(4-fluorophenyl)-1H-pyrazol-3-yl)-5,5-difluorocyclohexanecarbox-amide] | 0.37 | 11
N#CC1(NC(=O)[C@@H]2CCC(F)(F)C[C@H]2c2nn(-c3ncccc3F)cc2-c2ccc(N3CCS(=O)(=O)CC3)cc2)CC1 [Example 33, (1R,2R)-N-(1-cyanocyclopropyl)-2-(4-(4-(1,1-dioxidothiomorpholino)phen-yl)-1-(3-fluoropyridin-2-yl)-1H-pyrazol-3-yl)-4,4-difluorocyclohexanecarbox-amide] | 13.6 | 9540
N#Cc1ccc(-n2cc(-c3ccc(N4CCS(=O)(=O)CC4)cc3)c([C@@H]3CCCC[C@H]3C(=O)NC3(C#N)CC3)n2)c(Cl)c1 [Example 104, (1R,2R)-2-(1-(2-chloro-4-cyanophenyl)-4-(4-(1,1-dioxidothiomorpholino)phen-yl)-1H-pyrazol-3-yl)-N-(1-cyanocyclopropyl)cyclohex-anecarboxamide] | 2.02 | 411
N#CC1(NC(=O)[C@@H]2CCCC[C@H]2c2nn(-c3ccc(Cl)cc3)cc2-c2ccc(N3CCS(=O)(=O)CC3)cc2)CC1 [Example 95, (1R,2R)-2-(1-(4-chlorophenyl)-4-(4-(1,1-dioxidothiomorpholino)phen-yl)-1H-pyrazol-3-yl)-N-(1-cyanocyclopropyl)cyclohex-anecarboxamide] | 0.73 | 402
N#CC1(NC(=O)[C@@H]2CC(F)(F)CC[C@H]2c2nn3ccccc3c2-c2ccc(C(=O)N3CCOCC3)cc2)CC1 [Example 13, (1R,2R)—N-(1-cyanocyclopropyl)-5,5-difluoro-2-(3-(4-(morpholine-4-carbonyl)phenyl)pyrazolo[1,5-a]pyridin-2-yl)cyclohexanecarboxamide] | 4.84 | 339
C[C@@H](C#N)NC(=O)[C@@H]1CC(F)(F)CC[C@H]1c1nn2ccccc2c1-c1ccc(N2CCS(=O)(=O)CC2)cc1 [Example 72, (1R,2R)-N-((S)-1-cyanoethyl)-2-(3-(4-(1,1-dioxidothiomorpholino)phen-yl)pyrazolo[1,5-a]pyridin-2-yl)-5,5-difluorocyclohexanecarbox-amide] | 2.66 | 230
N#CC1(NC(=O)[C@@H]2C[C@@H](F)CC[C@H]2c2nn(-c3ccc(F)cc3)cc2-c2ccc(N3CCS(=N)(=O)CC3)cc2)CC1 [Example 16, (1R,2R,5S)-N-(1-cyanocyclopropyl)-5-fluoro-2-(1-(4-fluorophenyl)-4-(4-(1-imino-1-oxidothiomorpholino)phenyl)-1H-pyrazol-3-yl)cyclohexanecarboxamide] | 2.83 | 2600
Cc1c(-c2ccc(N3CCS(=O)(=O)CC3)cc2)c([C@@H]2CCC(F)(F)C[C@H]2C(=O)N[C@H](C#N)C(C)C)nn1-c1ccc(F)cn1 [Example 31, (1R,2R)-N-((S)-1-cyano-2-methylpropyl)-2-(4-(4-(1,1-dioxidothiomorpholino)phen-yl)-1-(5-fluoropyridin-2-yl)-5-methyl-1H-pyrazol-3-yl)-5,5-difluorocyclohexanecarbox-amide] | 1.63 | 115
N#CC(CC(F)(F)F)NC(=O)[C@@H]1CC(F)(F)CC[C@H]1c1nn2ccccc2c1-c1ccc(N2CCS(=O)(=O)CC2)cc1 (single isomer, unassigned) [Example 75, (1R,2R)-N-((R or S)-1-cyano-3,3,3-trifluoropropyl)-2-(3-(4-(1,1-dioxidothiomorpholino)phen-yl)pyrazolo[1,5-a]pyridin-2-yl)-5,5-difluorocyclohexanecarbox-amide] | 0.99 | 21
N#CC1(NC(=O)[C@@H]2CCC(F)(F)C[C@H]2c2nn(-c3ccc(F)cc3)cc2-c2ccc(N3CCS(=O)(=O)CC3)cc2)CC1 [Example 108, (1R,2R)-N-(1-cyanocyclopropyl)-2-(4-(4-(1,1-dioxidothiomorpholino)phen-yl)-1-(4-fluorophenyl)-1H-pyrazol-3-yl)-4,4-difluorocyclohexanecarbox-amide] | 2.32 | 1010
CS(=O)(=O)c1ccc(-c2cn(-c3ccc4ccccc4c3)nc2C2CCC(F)(F)CC2C(=O)NCC#N)cc1 (racemic) [Example 78, (1R,2R and 1S,2S)-N-(cyanomethyl)-5,5-difluoro-2-(4-(4-(methylsulfonyl)phenyl)-1-(naphthalen-2-yl)-1H-pyrazol-3-yl)cyclohexanecarboxamide] | 2.12 | 4
N#CC1(NC(=O)[C@@H]2CC3CC3C[C@H]2c2nn(-c3ccc(F)cn3)cc2-c2ccc(N3CCS(=O)(=O)CC3)cc2)CC1 (single isomer, unassigned) [Example 153, (1R,3R,4R,6S) or (1S,3R,4R,6R)-N-(1-cyanocyclopropyl)-4-(4-(4-(1,1-dioxidothiomorpholino)phen-yl)-1-(5-fluoropyridin-2-yl)-1H-pyrazol-3-yl)bicyclo[4.1.0]heptane-3-carboxamide] | 0.66 | 265
Cc1ccc(-n2cc(-c3ccc(N4CCS(=O)(=O)CC4)cc3)c([C@@H]3CCCC[C@H]3C(=O)NC3(C#N)CC3)n2)cn1 [Example 167, (1R,2R)-N-(1-cyanocyclopropyl)-2-(4-(4-(1,1-dioxidothiomorpholino)phen-yl)-1-(6-methylpyridin-3-yl)-1H-pyrazol-3-yl)cyclohexanecarboxamide] | 0.66 | 602
N#CC1(NC(=O)[C@@H]2CC(F)(F)CC[C@H]2c2nn(-c3ccc(F)cn3)c(C(F)F)c2-c2ccc(N3CCS(=O)(=O)CC3)cc2)CC1 [Example 71, (1R,2R)-N-(1-cyanocyclopropyl)-2-(5-(difluoromethyl)-4-(4-(1,1-dioxidothiomorpholino)phen-yl)-1-(5-fluoropyridin-2-yl)-1H-pyrazol-3-yl)-5,5-difluorocyclohexanecarbox-amide] | 2.35 | 149
